# Assay results reported in patent US10670605B2, “Cysteine reactive probes and uses thereof” (The Scripps Research Institute, priority 2015, dated 2020).
# Assays:
# [1] = target: T1, IMPDH2 (C140) (Homo sapiens, UniProt P12268); assay: Click probe 18 labeling of recombinant IMPDH2 and its competition; assay type: binding
# T1 construct: Full length cDNAs encoding for IDH1 (Open Biosystems, Clone ID: 3880331) and IMPDH2 (Open Biosystems, Clone ID: 3447994); His6 (C); made in house; host or cells: E. coli BL21(DE3)
# [2] = tested on: cysteines in MDA-MB-231 and Ramos cell proteomes; assay: Competitive isoTOP-ABPP in cell lysates (in vitro): proteomic reactivity / liganded cysteine rate; assay type: binding, human; conditions: fragment 500 μM; % of quantified cysteines with R ≥4
# Experimental: All cell lines were obtained from ATCC, were used with a low passage number and were grown at 37° C. with 5% CO2. MDA-MB-231 cells and HEK-293T cells were grown in DMEM supplemented with 10% fetal bovine serum, penicillin, streptomycin and glutamine. Jurkat, Ramos and MUM2C cells were grown in RPMI-1640 medium supplemented with 10% fetal bovine serum, penicillin and streptomycin. For in vitro labeling, cells were grown to 100% confluence for MDA-MB-231 cells or until cell density reached 1.5 million cells/mL for Ramos and Jurkat cells. […] Cell pellets were lysed by sonication and fractionated (100,000 g, 45 min) to yield soluble and membrane fractions, which were then adjusted to a final protein concentration of 1.5 mg/mL for proteomics experiments and 1 mg/mL for gel-based ABPP experiments. The soluble lysate was prepared fresh from frozen pellets directly before each experiment. Protein concentration was determined using the Bio-Rad DC™ protein assay kit.
# For each sample, 100 μL of streptavidin-agarose beads slurry (Pierce) was washed in 10 mL PBS and then resuspended in 5 mL PBS. The SDS-solubilized proteins were added to the suspension of streptavidin-agarose beads and the bead mixture was rotated for 3 h at ambient temperature. After incubation, the beads were pelleted by centrifugation (1,400 g, 3 min) and were washed (2×10 mL PBS and 2×10 mL water).
# The beads were transferred to eppendorf tubes with 1 mL PBS, centrifuged (1,400 g, 3 min), and resuspended in PBS containing 6 M urea (500 μL). To this was added 10 mM DTT (25 μL of a 200 mM stock in water) and the beads were incubated at 65° C. for 15 mins. 20 mM iodoacetamide (25 μL of a 400 mM stock in water) was then added and allowed to react at 37° C. for 30 mins with shaking. The bead mixture was diluted with 900 μL PBS, pelleted by centrifugation (1,400 g, 3 min), and resuspended in 200 μL PBS. To this was added 1 mM CaCl2 ([…]) and trypsin (2 μg, Promega, sequencing grade) and the digestion was allowed to proceed overnight at 37° C. with shaking. The beads were separated from the digest with Micro Bio-Spin columns (Bio-Rad) by centrifugation (1,000 g, 1 min), washed (2×1 mL PBS and 2×1 mL water) and then transferred to fresh eppendorfs with 1 mL water. The washed beads were washed once further in 140 μL TEV buffer (50 mM Tris, pH 8, 0.5 mM EDTA, 1 mM DTT) and then resuspended in 140 μL TEV buffer. 5 μL TEV protease (80 μM) was added and the reactions were rotated overnight at 29° C. The TEV digest was separated from the beads with Micro Bio-Spin columns by centrifugation (1,400 g, 3 min) and the beads were washed once with water (100 μL). The samples were then acidified to a final concentration of 5% (v/v) formic acid and stored at −80° C. prior to analysis.
# [3] = tested on: protein targets in MDA-MB-231 cells; assay: Whole protein capture with click probes (SILAC proteomics), native vs heat denatured; assay type: binding, human; conditions: proteins liganded by parent fragment (3 / 14) and enriched by click probe (19 / 18)
# Experimental: Protein enrichment by 18 and 19 was measured by whole protein capture of isotopically-SILAC labeled MDA-MB-231 cells using quantitative (SILAC) proteomics.
# [4] = target: CASP8 C360 (Q14790) (Homo sapiens, UniProt Q14790); assay: Competitive isoTOP-ABPP, cell lysates; assay type: binding; conditions: Jurkat cell lysates
# Experimental: TEV digests were pressure loaded onto a 250 μm (inner diameter) fused silica capillary column packed with C18 resin (Aqua 5 μm, Phenomenex). The samples were analyzed by multidimensional liquid chromatography tandem mass spectrometry (MudPIT), using an LTQ-Velos Orbitrap mass spectrometer (Thermo Scientific) coupled to an Agilent 1200-series quaternary pump. The peptides were eluted onto a biphasic column with a 5 μm tip (100 μm fused silica, packed with C18 (10 cm) and bulk strong cation exchange resin (3 cm, SCX, Phenomenex,)) in a 5-step MudPIT experiment, using 0%, 30%, 60%, 90%, and 100% salt bumps of 500 mM aqueous ammonium acetate and using a gradient of 5-100% buffer B in buffer A (buffer A: 95% water, 5% acetonitrile, 0.1% formic acid; buffer B: 5% water, 95% acetonitrile, 0.1% formic acid) as has been described in Weerapana et al. Nat Protoc 2:1414-1425 (2007). Data was collected in data-dependent acquisition mode with dynamic exclusion enabled (20 s, repeat of 2). One full MS (MS1) scan (400-1800 m/z) was followed by 30 MS2 scans (ITMS) of the nth most abundant ions.
# The ratios of heavy/light for each unique peptide (DMSO/compound treated; isoTOP-ABPP ratios, R values) were quantified with in-house CIMAGE software, using default parameters (3 ms s per peak and signal to noise threshold 2.5). Site-specific engagement of electrophilic fragments was assessed by blockade of IA-alkyne probe labeling. […] Ratios for unique peptide entries were calculated for each experiment; overlapping peptides with the same modified cysteine (e.g. different charge states, MudPIT chromatographic steps or tryptic termini) were grouped together and the median ratio was reported as the final ratio (R). The peptide ratios reported by CIMAGE were further filtered to ensure the removal or correction of low quality ratios in each individual dataset. The quality filters applied were the following: removal of half tryptic peptides; for ratios with high standard deviations from the median (90% of the median or above) the lowest ratio was taken instead of the median; removal of peptides with R=20 and only a single ms2 event triggered during the elution of the parent ion; manual annotation of all the peptides with ratios of 20, removing any peptides with low-quality elution profiles that remained after the previous curation steps. Proteome reactivity values for individual fragments were computed as the percentage of the total quantified cysteine-containing peptides with R values≥4 (defined as liganded cysteines) for each replicate experiment and the final proteome reactivity value was calculated as the mean for all replicate experiments for each fragment from both MDA-MB-231 and Ramos cellular proteomes.
# Biological replicates of the same compound and cell-line were averaged if the standard deviation was below 60% of the mean; otherwise the lowest value of the ratio set was taken.
# [5] = target: T2, pro-CASP8 (Homo sapiens, UniProt Q14790, D374A/D384A); assay: Click probe 61 labeling of pro-CASP8 and its competition; assay type: binding
# T2 construct: a truncated CASP8 (residues 217-479) without the CARD domain; His6 (C); made in house; host or cells: E. coli BL21(DE3)pLysS
# T2 sequence (Q14790 217-479 D374A/D384A): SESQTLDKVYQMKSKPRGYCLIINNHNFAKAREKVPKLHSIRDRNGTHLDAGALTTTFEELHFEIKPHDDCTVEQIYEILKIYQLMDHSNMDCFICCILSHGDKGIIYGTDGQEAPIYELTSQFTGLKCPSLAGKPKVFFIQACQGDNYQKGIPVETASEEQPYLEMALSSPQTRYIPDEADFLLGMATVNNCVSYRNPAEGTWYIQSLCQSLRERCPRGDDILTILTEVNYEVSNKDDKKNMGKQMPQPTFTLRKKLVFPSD
# Chain of CASP8 C360 (Q14790) (Q14790 whole entry, the tested form may be a part): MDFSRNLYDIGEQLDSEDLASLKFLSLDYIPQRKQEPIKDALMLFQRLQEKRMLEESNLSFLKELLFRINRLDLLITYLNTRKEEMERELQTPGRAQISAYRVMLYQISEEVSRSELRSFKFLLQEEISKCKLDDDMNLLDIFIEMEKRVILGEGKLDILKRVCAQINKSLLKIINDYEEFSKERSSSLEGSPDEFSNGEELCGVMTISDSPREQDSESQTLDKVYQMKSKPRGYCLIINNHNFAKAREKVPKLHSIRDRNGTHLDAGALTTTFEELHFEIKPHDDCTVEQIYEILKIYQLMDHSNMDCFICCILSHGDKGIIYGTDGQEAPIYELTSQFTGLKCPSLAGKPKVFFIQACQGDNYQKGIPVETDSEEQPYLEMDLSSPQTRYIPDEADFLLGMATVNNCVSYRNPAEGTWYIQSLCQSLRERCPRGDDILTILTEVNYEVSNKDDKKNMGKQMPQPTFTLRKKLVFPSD
smiles,measurement,setting,value
Nc1ncnc2c1ncn2[C@@H]1O[C@H](COP(=O)(O)OP(=O)(O)OP(=O)(O)O)[C@@H](O)[C@H]1O [ATP],inhibition of 18 labeling of IMPDH2 by nucleotides,[1]; 500 μM of each nucleotide,inhibited
same,IC50,"[1]; probe 18 25 μM, ATP 15 min pre-incubation, read-out: IC50 for blockade of 18 labeling of IMPDH2",45 µM
C=CC(=O)Nc1cc(C(F)(F)F)cc(C(F)(F)F)c1 [compound 14],inhibition of 18 labeling of IMPDH2 by fragments,[1]; probe 18 25 μM,inhibited
same,proteomic reactivity value (liganded cysteine rate),[2],3.4%
C#CCCCCNC(=O)c1cc(NC(=O)CCl)cc(C(F)(F)F)c1 [compound 19],percentage of quantified protein targets sensitive to heat denaturation,[3],64%
C#Cc1cccc(C(=O)N2CCC(N(C(=O)CCl)c3ccccc3)CC2)c1 [compound 61],R value for direct labeling of C360 (10 versus 100 μM probe),[4],2
same,direct labeling of pro-CASP8 by click probe,[5],strongly labeled
